Converted amounts (≈) assume the structure as drawn. Where two headings read alike, the source gives them in different places.
What was measured:
[1] = tested on: S. epidermidis ATCC 35984; assay: MBEC plate biofilm eradication, agents in combination; assay type: cell-based
Description: The following strains were used for in vitro biofilm studies: vancomycin (VAN)-susceptible Enterococcus faecalis ATCC 29212 (VSE), VAN-resistant E. faecalis ATCC 51299 (VanB VRE), E. faecium ATCC 51559 (VanA VRE), S. epidermidis ATCC 12228 and the slime-producing strain S. epidermidis ATCC 35984. Biofilms were established in MBEC™ Physiology & Genetics Assay plates (Innovotech; Edmonton, Canada).

[2] = tested on: exponentially-growing S. aureus (MSSA, MRSA, VRSA); conditions: actively dividing cells; cited from earlier work
[3] = tested on: stationary-phase MRSA ATCC 43300; assay: Ultrastructure by transmission electron microscopy of thin sections; assay type: cell-based, S. aureus; conditions: 3 hours in nutrient-depleted CAMHB; 1 μg/mL oritavancin, 16 μg/mL vancomycin
Protocol: Bacteria were fixed in 2.5% glutaraldehyde to cross-link proteins and help preserve morphological structure. Prior to embedding, the samples were treated with fresh 2.5% (vol/vol) glutaraldehyde in HEPES buffer (pH, 6.8) for 2 hours. The samples were then post-fixed in 2.0% (wt/vol) osmium tetroxide, followed by en bloc-staining with 2.0% (wt/vol) uranyl acetate, as a heavy-metal stain, to add contrast to the cells. The cells were then dehydrated through a series of ethanol washes then embedded in LR White resin. Once polymerized by curing, each culture sample was thin sectioned and stained by uranyl acetate and lead citrate so as to view the internal cellular constituents and the juxtaposition of cell envelope layers such as the plasma membrane and cell wall. Transmission electron microscopy was used to view the thin sections using a Philips CM10 under standard operating conditions at 100 kV.

VRSA VRS5 [4] = assay: MBEC system in vitro biofilm (MIC and MBEC); assay type: cell-based, S. aureus; conditions: for MBEC: 24-hour biofilm, 24 hours of exposure; for MIC: Staphylococcus aureus, VRSA
Protocol: (§1) The commercially-available MBEC™ system (Innovotech; Edmonton, AB, Canada) was used following the manufacturer's protocol (17) to establish in vitro biofilms of S. aureus and to determine the minimal biofilm eradication concentration (MBEC) of oritavancin and comparator antimicrobial agents. The MBEC represents the concentration of antimicrobial agent required to sterilize the biofilm after 24 hours of exposure. The MBEC™ system also allows for the determination of the minimal inhibitory concentration (MIC) of the test agent against planktonic cells under the conditions of the biofilm assay.
(§2) 150 μL of bacterial inocula at 10^7 CFU/mL in tryptic soy broth was aliquoted into each well of an MBEC plate. Biofilms were established for 24 hours in a rotary incubator at 37° C. and 150 rpm. For experiments involving 72-hour biofilms, peg lids were transferred each day to 96-well plates containing 150 μL/well of fresh tryptic soy broth and incubated another 24 hours. Peg lids with established biofilms were washed once in sterile saline (200 μL/well) and then placed in plates containing antimicrobial agents diluted in CAMHB (200 μL/well). Antimicrobial agents were serially diluted in CAMHB in 96-well plates and peg lids were exposed for 24 hours or for the indicated times. Following antimicrobial challenge, peg lids were washed once in sterile saline then placed in recovery plates containing CAMHB (200 μL/well). The recovery plates were sonicated for 5 minutes in an ultrasonic sonicating bath (VWR Aquasonic model 550D) at the maximum setting then incubated for 24 hours and the MBECs recorded. MBECs were determined from at least three independent experiments; results represent the ranges of MBECs obtained. To enumerate the biofilm colony forming units (CFUs) on individual control pegs, pegs were broken off the lid using sterile forceps placed in 1 ml sterile saline, sonicated for 5 min and vortexed for 1 min at the highest setting. Bacteria were then enumerated by serial-dilution plating.
(§3) To prevent loss of oritavancin due to binding to vessel surfaces (3), the CLSI now recommends inclusion of 0.002% polysorbate-80 for oritavancin broth microdilution MIC determinations (9).

MSSA ATCC 29213 [5] = assay: MBEC system in vitro biofilm (MIC and MBEC); assay type: cell-based, S. aureus; conditions: for MBEC: 24-hour biofilm, 24 hours of exposure; for MIC: Staphylococcus aureus
Protocol: as §1, §2, §3

MRSA ATCC 33591 [6] = assay: MBEC system in vitro biofilm (MIC and MBEC); assay type: cell-based, S. aureus; conditions: for MBEC: 24-hour biofilm, 24 hours of exposure; for MIC: Staphylococcus aureus
Protocol: as §1, §2, §3

S. aureus ATCC 29213 [7] = assay: Membrane depolarization, DiSC3(5) fluorescence; assay type: cell-based; conditions: 30 min
Protocol: Bacteria were grown overnight in CAMHB and sub-cultured the following day in CAMHB to exponential phase (OD600≈0.25). Exponential- and stationary-phase cells were washed in membrane assay buffer with or without 5 mM glucose, respectively, and resuspended at an OD600=0.25. DiSC3(5) was added to a final concentration of 1.5 μM and the solution was incubated in the dark at ambient temperature for 30 minutes to allow loading of the fluorescent dye into cell membranes. After the loading period, cells were diluted 50-fold (OD600=0.005) in depolarization buffer with or without glucose for exponential- or stationary-phase cells, respectively. Assays were initiated by the addition of antimicrobial agents over a range of concentrations and were monitored in real time by fluorescence spectroscopy (λex=612, λem=665) for a period of 30 minutes. […] Experiments were repeated three times and produced similar results; results from one assay are presented.

S. aureus ATCC 29213 [8] = assay: Short duration (2 h) time-kill in membrane assay buffer; assay type: cell-based; conditions: for killing over short time course: fCmax
Protocol: Short duration (2 h) time-kill studies were performed in membrane assay buffer (see below) to characterize the killing of S. aureus ATCC 29213 under conditions used in the membrane depolarization and permeability assays. Exponential- and stationary-phase S. aureus ATCC 29213 cells were diluted to an OD600=0.005 (approx 10^6 CFU/mL) in membrane assay buffer (10 mM HEPES-C1, pH 7.5, 50 μg/mL CaCl2) with or without 5 mM glucose, respectively. Experiments were initiated by the addition of antimicrobial agents at the indicated concentrations and bacteria were enumerated by serial-dilution plating.

MSSA ATCC 29213 [9] = assay: Time-kill in nutrient-depleted CAMHB; assay type: cell-based, S. aureus; conditions: 24 hour time point, estimated fCmax
Protocol: (§4) Nutrient-depleted CAMHB from each respective strain was prepared by 3 rounds of inoculation of CAMHB with exponential-phase bacteria, incubation overnight at 37° C. with rotation (225 rpm) and centrifugation (8000×g for 30 minutes) to remove bacteria. After the final round of inoculation, growth and centrifugation, the pH of the nutrient-depleted CAMHB was adjusted to pH=7.0 and the spent medium was filter-sterilized using a […] membrane (Corning Incorporated, Corning, N.Y.).
(§5) Nutrient-depleted CAMHB containing diluted antimicrobial agents was inoculated with stationary-phase bacteria from overnight cultures of the S. aureus strains at approximately 10^7 colony-forming units (CFU)/mL. Other experiments compared the killing of stationary- and exponential-phase S. aureus ATCC 29213 when inoculated into nutrient-depleted CAMHB containing the test agents. For assays involving daptomycin, nutrient-depleted CAMHB was supplemented with 50 μg/ml CaCl2 (8). All time-kill studies were performed in 96-well deep-well plates at 37° C. with rotation (225 rpm) in a total volume of 750 μL. Bacteria were enumerated by serial-dilution plating. Bacteriostatic and bactericidal activity of the antimicrobial agents were defined as a reduction in viable cell counts of <3 or ≥3 log at 24 hours relative to the starting inoculum, respectively (33). Experiments were repeated at least three times and produced similar results; results from one experiment are presented.

S. aureus ATCC 29213 [10] = assay: Membrane permeability, SYTO-9/propidium iodide fluorescence; assay type: cell-based; conditions: 30 min
Protocol: For membrane permeability assays, bacteria were prepared identically as described above for the membrane depolarization assay with the exception that SYTO-9 and propidium iodide (Invitrogen Corporation) were added at 5 μM and 30 μM, respectively. Experiments were repeated three times and produced similar results; results from one assay are presented.

[11] = cited from earlier work; for estimated fCmax in plasma: human, in vivo, 200 mg
VRSA VRS5 [12] = assay: Time-kill in nutrient-depleted CAMHB; assay type: cell-based, S. aureus; conditions: stationary-phase, 24-hour incubation, fCmax
Protocol: as §4, §5

MRSA ATCC 33591 [13] = assay: Time-kill in nutrient-depleted CAMHB; assay type: cell-based, S. aureus; conditions: stationary-phase, 24-hour incubation, fCmax
Protocol: as §4, §5

[14] = oritavancin without polysorbate-80
[15] = planktonic cells shed from 24-hour peg biofilms, oritavancin without polysorbate-80, read-out: MIC

| Structure (SMILES) | MBEC (VRSA VRS5 [4]; [14]) [µg/mL] | MBEC (MSSA ATCC 29213 [5]; [14]) [µg/mL] | MBEC (MRSA ATCC 33591 [6]; [14]) [µg/mL] | dissipation of membrane potential (DiSC3(5) fluorescence) (S. aureus ATCC 29213 [7]; exponential-phase cells) | dissipation of membrane potential (DiSC3(5) fluorescence) (S. aureus ATCC 29213 [7]; stationary-phase cells) | killing over short time course (S. aureus ATCC 29213 [8]; exponential-phase cells) | membrane permeability (SYTO-9 fluorescence) (S. aureus ATCC 29213 [10]; exponential-phase cells) | membrane permeability (SYTO-9 fluorescence) (S. aureus ATCC 29213 [10]; stationary-phase cells) | MIC (VRSA VRS5 [4]; [15]) [µg/mL] | MIC (MSSA ATCC 29213 [5]; [15]) [µg/mL] | MIC (MRSA ATCC 33591 [6]; [15]) [µg/mL] | estimated fCmax in plasma [11] [µg/mL] | other results |
| --- | --- | --- | --- | --- | --- | --- | --- | --- | --- | --- | --- | --- | --- |
| CO[C@H]1/C=C/O[C@@]2(C)Oc3c(C)c(O)c4c(c3C2=O)C2=NC3(CCN(CC(C)C)CC3)NC2=C(NC(=O)/C(C)=C\C=C\[C@H](C)[C@H](O)[C@@H](C)[C@@H](O)[C@@H](C)[C@H](OC(C)=O)[C@@H]1C)C4=O [RFB, rifabutin] |  |  |  |  |  |  |  |  |  |  |  |  | MBEC in combination ([1]; combination of ORI and RFB required for sterilization): 0.125 mg/L |
| COc1c(N2C[C@@H]3CCCN[C@@H]3C2)c(F)cc2c(=O)c(C(=O)O)cn(C3CC3)c12 [MOX, moxifloxacin] |  |  |  |  |  |  |  |  |  |  |  |  | MBEC in combination ([1]; combination of ORI and MOX required for sterilization): 4 mg/L |
| CN[C@H](CC(C)C)C(=O)N[C@H]1C(=O)N[C@@H](CC(N)=O)C(=O)N[C@H]2C(=O)N[C@H]3C(=O)N[C@H](C(=O)N[C@H](C(=O)O)c4cc(O)cc(O)c4-c4cc3ccc4O)[C@H](O)c3ccc(c(Cl)c3)Oc3cc2cc(c3O[C@@H]2O[C@H](CO)[C@@H](O)[C@H](O)[C@H]2O[C@H]2C[C@](C)(N)[C@H](O)[C@H](C)O2)Oc2ccc(cc2Cl)[C@H]1O [Vancomycin, vancomycin] | >128 | >128 | ≥128 | no effect on membrane potential | no effect on membrane potential | did not effect any change | no effect on fluorescence | no effect on fluorescence |  |  |  |  | time required to exert bactericidal activity [2]: 24 h; septal mid-line staining [3]: evident; MIC (VRSA VRS5 [4]; 24 h): > 128 µg/mL; MIC (MSSA ATCC 29213 [5]; 24 h): 1 µg/mL (≈ 0.69 µM); MIC (MSSA ATCC 29213 [5]; 72 h, read-out: planktonic MIC): 2 to 16 µg/mL (≈ 1.38 to 11 µM); MIC (MRSA ATCC 33591 [6]; 24 h): 1 to 2 µg/mL (≈ 0.69 to 1.38 µM); killing over short time course (S. aureus ATCC 29213 [8]; stationary-phase cells): did not effect any change; less killing activity against stationary-phase cells compared to exponential-phase cells (MSSA ATCC 29213 [9]): approx 2.4 log; estimated free trough concentration in plasma ([11]; humans, standard dose (oritavancin 200 mg)): 4 µg/mL |
| CO[C@H]1/C=C/O[C@@]2(C)Oc3c(C)c(O)c4c(O)c(c(/C=N/N5CCN(C)CC5)c(O)c4c3C2=O)NC(=O)/C(C)=C\C=C\[C@H](C)[C@H](O)[C@@H](C)[C@@H](O)[C@@H](C)[C@H](OC(C)=O)[C@@H]1C [Rifampicin, rifampicin] | 4 | 4 | 0.25 to 4 |  |  |  |  |  | 0.03 to 0.06 (≈ 0.0365 to 0.0729 µM) | < 0.02 | < 0.03 | 2 |  |
| CCCCCCCCCC(=O)N[C@@H](Cc1c[nH]c2ccccc12)C(=O)N[C@H](CC(N)=O)C(=O)N[C@@H](CC(=O)O)C(=O)N[C@@H]1C(=O)NCC(=O)N[C@@H](CCCN)C(=O)N[C@@H](CC(=O)O)C(=O)N[C@H](C)C(=O)N[C@@H](CC(=O)O)C(=O)NCC(=O)N[C@H](CO)C(=O)N[C@@H]([C@H](C)CC(=O)O)C(=O)N[C@@H](CC(=O)c2ccccc2N)C(=O)O[C@@H]1C [Daptomycin, daptomycin] |  |  |  | small effect | did not effect changes | Rapid killing | loss of fluorescence | no effect |  |  |  | 4 | reduction in CFU (S. aureus ATCC 29213 [8]; stationary-phase cells, within the 2-hour time period, oritavancin at fCmax 800, daptomycin at fCmax): 0.7 log |
| CC(=O)NC[C@H]1CN(c2ccc(N3CCOCC3)c(F)c2)C(=O)O1 [Linezolid, linezolid] | >128 | >128 | >128 |  |  |  |  |  | 4 to 8 (≈ 11.9 to 23.7 µM) | 8 (≈ 23.7 µM) | 2 to 4 (≈ 5.93 to 11.9 µM) |  | MIC (MSSA ATCC 29213 [5]; 72-hour biofilms, read-out: planktonic MIC): 8 to 16 µg/mL (≈ 23.7 to 47.4 µM); effect on bacterial cell numbers (VRSA VRS5 [12]): no effect; effect on bacterial cell numbers (MRSA ATCC 33591 [13]): no effect |
